pEC50, pKi: −log10 of the molar value.
Key:
[1] = molecular target: T1, Peroxisome proliferator-activated receptor gamma (Homo sapiens) (UniProt P37231); test: Ratio between agonistic efficacy in PPAR gamma; type: functional; conditions: Cercopithecidae
T1 sequence (whole entry): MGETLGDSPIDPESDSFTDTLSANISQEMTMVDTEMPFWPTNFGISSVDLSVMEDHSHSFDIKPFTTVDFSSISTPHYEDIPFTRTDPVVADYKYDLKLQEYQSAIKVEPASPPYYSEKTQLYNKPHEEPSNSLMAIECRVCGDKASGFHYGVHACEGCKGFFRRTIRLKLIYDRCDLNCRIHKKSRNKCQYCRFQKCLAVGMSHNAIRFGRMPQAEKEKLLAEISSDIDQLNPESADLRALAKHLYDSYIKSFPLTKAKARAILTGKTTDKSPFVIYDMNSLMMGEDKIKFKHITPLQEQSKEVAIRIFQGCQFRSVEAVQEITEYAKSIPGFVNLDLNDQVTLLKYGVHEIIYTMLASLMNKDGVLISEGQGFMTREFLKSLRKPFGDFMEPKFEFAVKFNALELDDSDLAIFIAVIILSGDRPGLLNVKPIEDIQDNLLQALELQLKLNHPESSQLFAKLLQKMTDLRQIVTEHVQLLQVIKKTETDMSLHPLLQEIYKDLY

[2] = molecular target: T2, Retinoic acid receptor gamma (Homo sapiens, UniProt P13631); test: Ability to displace [3H]ATRA from Retinoic acid receptor gamma in CV-1 cells; type: cell-based, Cercopithecidae
T2 sequence (P13631 whole entry): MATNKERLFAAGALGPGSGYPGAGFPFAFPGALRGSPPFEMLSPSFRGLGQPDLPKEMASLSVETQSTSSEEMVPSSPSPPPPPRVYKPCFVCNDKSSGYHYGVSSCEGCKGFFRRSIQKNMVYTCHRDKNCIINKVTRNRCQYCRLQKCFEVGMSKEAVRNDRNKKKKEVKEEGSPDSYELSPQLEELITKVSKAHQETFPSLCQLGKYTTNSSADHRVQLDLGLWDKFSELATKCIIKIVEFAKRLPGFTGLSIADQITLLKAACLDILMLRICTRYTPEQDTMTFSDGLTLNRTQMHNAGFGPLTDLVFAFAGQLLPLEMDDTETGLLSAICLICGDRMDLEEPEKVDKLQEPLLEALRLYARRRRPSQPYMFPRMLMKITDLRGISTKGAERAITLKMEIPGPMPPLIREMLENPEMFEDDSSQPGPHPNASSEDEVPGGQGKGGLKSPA

[3] = molecular target: T3, Retinoic acid receptor RXR-alpha (Homo sapiens, UniProt P19793); test: Ability to displace [3H]9-cis-RA from Retinoid X receptor alpha in CV-1 cells; type: cell-based, Cercopithecidae
T3 sequence (P19793 whole entry): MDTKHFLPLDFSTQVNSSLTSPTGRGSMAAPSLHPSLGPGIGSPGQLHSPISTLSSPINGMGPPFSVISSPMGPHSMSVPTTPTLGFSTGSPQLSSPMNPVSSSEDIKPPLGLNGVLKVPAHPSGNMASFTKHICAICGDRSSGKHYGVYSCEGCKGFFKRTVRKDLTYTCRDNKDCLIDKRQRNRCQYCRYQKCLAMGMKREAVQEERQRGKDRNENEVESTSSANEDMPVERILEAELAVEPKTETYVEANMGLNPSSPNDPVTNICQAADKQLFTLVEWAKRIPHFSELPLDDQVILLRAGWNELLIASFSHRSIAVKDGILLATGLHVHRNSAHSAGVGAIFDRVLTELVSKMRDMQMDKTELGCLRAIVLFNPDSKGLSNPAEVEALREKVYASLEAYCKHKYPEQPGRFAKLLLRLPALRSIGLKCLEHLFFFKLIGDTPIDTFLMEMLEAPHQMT

[4] = molecular target: T4, Retinoic acid receptor RXR-alpha (Homo sapiens) (UniProt P19793); test: Antagonistic efficacy in CV-1 cells (LGD1069 was used as reference); type: functional, cell-based; conditions: Cercopithecidae
T4 sequence (whole entry): T3 sequence (P19793 whole entry)

[5] = molecular target: T3, Retinoic acid receptor RXR-alpha; test: Effective concentration for antagonistic activity against RXR-alpha expressed in CV-1 cells; type: functional, cell-based, Cercopithecidae
Cercopithecidae = test: RAR agonist synergy calculated using 3 nM of TTNPB; type: functional
[6] = molecular target: T1, Peroxisome proliferator-activated receptor gamma (Homo sapiens); test: Ratio between effective concentrations (Agonist) in PPAR gamma; type: functional; conditions: Cercopithecidae
[7] = molecular target: T4, Retinoic acid receptor RXR-alpha (Homo sapiens); test: Agonistic efficacy in CV-1 cells (LGD1069 was used as reference); type: functional, cell-based; conditions: Cercopithecidae
[8] = molecular target: T3, Retinoic acid receptor RXR-alpha; test: Effective concentration required for agonistic activity in CV-1 cells expressing RXR-alpha; type: functional, cell-based, Cercopithecidae

Row | Compound | Ratio [1] | pKi [2] | pKi [3] | Efficacy [4] | pEC50 [5] | Synergy (Cercopithecidae) | Ratio [6] | Efficacy [7] | pEC50 [8]
1 | CCCCOc1c(-c2cn(C)c3ccc(/C(C)=C/C(=O)O)cc23)cc(C(C)C)cc1C(C)C | 49 | < 5.00 | 6.13 | 86% | 5.81 | 2.5 | 612 | 2.52% | –
2 | CCOc1c(-c2[nH]nc3ccc(/C(C)=C/C(=O)O)cc23)cc(C(C)C)cc1C(C)C | 168 | – | – | 7% | – | 2.4 | 118 | 43% | –
3 | CCCCOc1c(\C(C)=C/C=C/C(C)=C/C(=O)O)cc(C(C)C)cc1C(C)C | 12 | < 5.00 | – | 91% | 8.40 | 1 | 1890 | 2% | –
4 | COc1c(-c2csc3ccc(/C(C)=C/C(=O)O)cc23)cc(C(C)C)cc1C(C)C | 114 | < 5.00 | 7.53 | 0% | – | 2.7 | 224 | 65.4% | 6.04
5 | C/C(=C/C=C/C(C)=C/C(=O)O)c1cc(C(C)(C)C)cc(C(C)(C)C)c1OCCCF | 60 | < 5.00 | 8.57 | 84% | 8.19 | 1.4 | 3.1 | 4% | –
6 | CCCOc1c(-c2c[nH]c3ccc(/C(C)=C/C(=O)O)cc23)cc(C(C)(C)C)cc1C(C)(C)C | 173 | < 5.00 | 8.80 | 81% | 7.52 | 3.4 | 7 | 7% | –
7 | CCOc1c(-c2n[nH]c3ccc(/C(C)=C/C(=O)O)cc23)cc(C(C)C)cc1C(C)C | – | < 5.00 | 7.16 | – | – | – | – | – | 6.63
8 | CCCCOc1c(-c2cccc3[nH]c(/C(C)=C/C(=O)O)cc23)cc(C(C)C)cc1C(C)C | 24.9 | – | – | 64% | 5.40 | 1.1 | 893 | 0.51% | –
9 | CCOc1c(-c2csc3cnc(/C(C)=C/C(=O)O)cc23)cc(C(C)C)cc1C(C)C | 127 | – | – | 9% | – | 2 | 347 | 15.1% | 5.84
10 | CCCCOc1c(-c2c[nH]c3ccc(/C(C)=C/C(=O)O)cc23)cc(C(C)C)cc1C(C)C | 256 | < 5.00 | 8.13 | 87% | 7.68 | 1.3 | 15 | 1.7% | –
11 | C/C(=C\C(=O)O)c1ccc2[nH]cc(-c3cc(C(C)(C)C)cc(C(C)(C)C)c3OCC(F)F)c2c1 | 233 | < 5.00 | 8.80 | 41% | 7.18 | 3 | 21.9 | 15% | 7.19
12 | CCOc1c(-c2noc3ccc(/C(C)=C/C(=O)O)cc23)cc(C(C)C)cc1C(C)C | 65 | < 5.00 | 6.19 | 24% | – | 1.7 | 306 | 36% | 5.99
13 | CCCCOc1c(-c2c[nH]c3ccc(/C(C)=C/C(=O)O)cc23)cc(C(C)(C)C)cc1C(C)(C)C | 105 | < 5.00 | 8.49 | 93% | 7.58 | 2.3 | 8.9 | 1% | –
14 | C/C(=C\C(=O)O)c1ccc2scc(-c3cc(C(C)C)cc(C(C)C)c3OCCCF)c2c1 | 123 | < 5.00 | 6.40 | 48% | 5.38 | 1.5 | 1480 | 1.78% | –
15 | CCOc1c(-c2cnc3ccc(/C(C)=C/C(=O)O)cn23)cc(C(C)C)cc1C(C)C | 81.8 | < 5.00 | 5.68 | 9% | – | 1.5 | 425 | 7.93% | –
16 | C/C(=C\C(=O)O)c1ccc2scc(-c3cc(C(C)C)cc(C(C)C)c3O)c2c1 | 112 | < 5.00 | 6.88 | 0% | – | 3.5 | 384 | 37.4% | 5.84
17 | CCOc1c(\C(C)=C/C=C/C(C)=C/C(=O)O)cc(C(C)C)cc1C(C)C | 38 | < 5.00 | – | 7% | – | 5 | 8 | 58% | –

Source: ChEMBL document CHEMBL1149237, “Design and synthesis of benzofused heterocyclic RXR modulators” (Bioorg Med Chem Lett, 2004)
